Measurements: publication PMC7045321 (ACS Omega, 2020)

Tests used:
[1] = system: S. aureus; assay: Time-kill kinetics in MHB with 10% serum; type: cell-based, Staphylococcus aureus; conditions: 4 × MIC in MHB with 10% fetal bovine serum (FBS), 37 °C
[2] = system: S. aureus; assay: Time-kill kinetics in MHB; type: cell-based, Staphylococcus aureus; conditions: 4 × MIC in MHB

CN[C@H](CC(C)C)C(=O)N[C@H]1C(=O)N[C@@H](CC(N)=O)C(=O)N[C@H]2C(=O)N[C@H]3C(=O)N[C@H](C(=O)N[C@H](C(=O)O)c4cc(O)cc(O)c4-c4cc3ccc4O)[C@H](O)c3ccc(c(Cl)c3)Oc3cc2cc(c3O[C@@H]2O[C@H](CO)[C@@H](O)[C@H](O)[C@H]2O[C@H]2C[C@](C)(N)[C@H](O)[C@H](C)O2)Oc2ccc(cc2Cl)[C@H]1O [vancomycin]
log reduction in cell viability after 3 h exposure [1]: 1 log | log reduction after 24 h ([2]; 37 °C): 3 log | time to complete eradication of viable S. aureus cells ([2]; ~10^5 CFU mL^–1, 37 °C, followed for 24 h): not complete eradication
